# Values of other authors, collected in patent publication EP1541129A1, “Pharmaceutical effervescent formulation comprising amoxycillin and clavulanic acid” (Cimex AG, priority 2003, dated 2005).
# Settings: freely water-soluble
compound,measurement,value
"O=C(O)[C@H]1/C(=C/CO)O[C@@H]2CC(=O)N21 [Potassium clavulanate, potassium clavulanate]",solubility in water,about 1 part of water for 1 part of solute
